Results from ChEMBL document CHEMBL1126087, “(E)-1,3-dialkyl-7-methyl-8-(3,4,5-trimethoxystyryl)xanthines: potent and selective adenosine A2 antagonists” (J Med Chem, 1992).

How the values were obtained:
[1] = target: T1, Adenosine receptor A1 (Cavia porcellus, UniProt P47745)
T1 sequence (P47745 whole entry): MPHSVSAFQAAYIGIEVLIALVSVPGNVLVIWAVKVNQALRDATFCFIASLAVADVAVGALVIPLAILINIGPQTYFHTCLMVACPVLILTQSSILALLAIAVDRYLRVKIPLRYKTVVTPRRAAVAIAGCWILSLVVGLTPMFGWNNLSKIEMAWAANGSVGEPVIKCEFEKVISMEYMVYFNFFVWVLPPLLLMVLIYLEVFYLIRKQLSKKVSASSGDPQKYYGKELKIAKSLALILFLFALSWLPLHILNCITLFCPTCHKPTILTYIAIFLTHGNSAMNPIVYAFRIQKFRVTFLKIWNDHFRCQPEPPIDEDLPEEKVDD
Description: Binding affinity against adenosine A1 receptor from guinea pig forebrain membranes, using N6-[3H]cyclohexyladenosine as radioligand.

[2] = target: Adenosine A2 receptor (Rattus norvegicus, UniProt P29276+P30543)
[3] = species on record: Cavia porcellus
[4] = target: T2, Adenosine receptor A1 (Rattus norvegicus, UniProt P25099)
T2 sequence (P25099 whole entry): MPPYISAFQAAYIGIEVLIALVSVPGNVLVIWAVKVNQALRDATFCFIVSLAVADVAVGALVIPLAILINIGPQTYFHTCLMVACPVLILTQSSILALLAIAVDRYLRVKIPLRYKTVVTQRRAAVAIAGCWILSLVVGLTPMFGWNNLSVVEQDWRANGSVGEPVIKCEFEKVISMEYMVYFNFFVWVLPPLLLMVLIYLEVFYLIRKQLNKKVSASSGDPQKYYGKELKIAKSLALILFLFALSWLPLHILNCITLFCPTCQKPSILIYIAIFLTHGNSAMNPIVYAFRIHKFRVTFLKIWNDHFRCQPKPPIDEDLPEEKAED

[5] = target: T2, Adenosine receptor A1; assay type: cell membranes, Membrane
[6] = Water solubility of the compound; assay type: ADME; settings: read-out: S
[7] = target: Adenosine receptor A2a (Homo sapiens) (UniProt P29274)
Sequence of Adenosine receptor A2a (Homo sapiens) (P29274 whole entry, looked up): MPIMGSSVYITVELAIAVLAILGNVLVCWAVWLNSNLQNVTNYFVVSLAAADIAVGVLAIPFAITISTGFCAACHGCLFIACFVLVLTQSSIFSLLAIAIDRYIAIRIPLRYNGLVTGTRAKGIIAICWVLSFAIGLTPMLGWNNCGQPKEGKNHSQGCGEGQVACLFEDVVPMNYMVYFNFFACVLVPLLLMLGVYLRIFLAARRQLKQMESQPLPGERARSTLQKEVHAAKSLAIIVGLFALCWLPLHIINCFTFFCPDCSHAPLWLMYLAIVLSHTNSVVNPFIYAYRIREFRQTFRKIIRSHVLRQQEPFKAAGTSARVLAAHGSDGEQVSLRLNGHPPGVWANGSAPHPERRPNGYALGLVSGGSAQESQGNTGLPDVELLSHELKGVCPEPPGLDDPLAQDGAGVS

Row | Structure (SMILES) | Ki [1] [µM] | Ki [2] [µM] | Ki ratio [3] | further results
1 | CCCn1c(=O)c2c(nc(CCC3CCCC3)n2C)n(CCC)c1=O | 1.3 | > 10 |  | 
2 | C=CCn1c(=O)c2nc(/C=C/c3cc(OC)c(OC)c(OC)c3)[nH]c2n(CC=C)c1=O | > 100 | 0.047 | > 2100 | 
3 | COc1cc(/C=C/c2nc3c(c(=O)n(C)c(=O)n3C)n2C)cc(OC)c1OC | > 100 |  |  | 
4 | CCCCn1c(=O)c2c(nc(/C=C/c3cc(OC)c(OC)c(OC)c3)n2C)n(CCCC)c1=O | 2.3 | 0.052 | 44 | 
5 | CCCn1c(=O)c2c(nc(/C=C/c3ccc(Cl)c(Cl)c3)n2C)n(CCC)c1=O | > 100 | 7.5 |  | 
6 | CCCn1c(=O)c2c(nc(/C=C/c3ccc(OC)cc3)n2C)n(CCC)c1=O | 1.4 | 0.018 | 78 | Ki [4]: 0.34 µM
7 | CCCn1c(=O)c2nc(/C=C/c3ccc(Cl)cc3)[nH]c2n(CCC)c1=O | > 100 | > 100 |  | 
8 | CCCn1c(=O)c2nc(CCC3CCCC3)[nH]c2n(CCC)c1=O |  | 6 | 0.053 | 
9 | CCCn1c(=O)c2[nH]c(-c3ccc(S(=O)(=O)N(C)CCN(C)C)cc3)nc2n(CCC)c1=O | 0.14 |  |  | Ki [5]: 0.0139 µM
10 | CCCn1c(=O)c2c(nc(/C=C/c3ccc(Cl)cc3)n2C)n(CCC)c1=O | > 10 | 0.049 |  | 
11 | C=CCn1c(=O)c2c(nc(/C=C/c3cc(OC)c(OC)c(OC)c3)n2C)n(CC=C)c1=O | > 100 |  |  | 
12 | CCCn1c(=O)c2[nH]c(CCC3CCCC3)nc2n(CCC)c1=O | 0.32 |  |  | 
13 | CCCn1c(=O)c2nc(/C=C/c3ccccc3)[nH]c2n(CCC)c1=O | 1.8 | 0.026 |  | 
14 | CCCn1c(=O)c2nc(/C=C/c3ccc(Cl)c(Cl)c3)[nH]c2n(CCC)c1=O | > 100 | > 100 |  | 
15 | CCCn1c(=O)c2c(nc(CCc3ccccc3)n2C)n(CCC)c1=O | 1.3 | 2.2 | 0.59 | 
16 | COc1cc(/C=C/c2nc3c(=O)n(C)c(=O)n(C)c3[nH]2)cc(OC)c1OC | > 100 |  |  | 
17 | CCCn1c(=O)c2c(nc(/C=C/c3ccc(OC)c(OC)c3)n2C)n(CCC)c1=O |  |  |  | solubility [6]: < 10 µg/mL; Ki [4]: 0.43 µM
18 | CCCn1c(=O)c2c(nc(C3CCCC3)n2C)n(CCC)c1=O | 8.1 | > 100 | 0.26 | Kb [7]: 0.22 µM
19 | CCCn1c(=O)c2nc(CCc3ccccc3)[nH]c2n(CCC)c1=O | 0.56 | 6.2 | 0.09 | 
20 | CCCn1c(=O)c2nc(C/C=C/c3ccccc3)[nH]c2n(CCC)c1=O | 0.87 | 1.6 | 0.54 | 

Continued, in another order:

Row | Ki [1] [µM] | Ki [2] [µM] | Ki ratio [3] | Structure (SMILES) | further results
21 | 2.1 | 0.014 | 150 | CCCn1c(=O)c2c(nc(/C=C/c3cc(OC)c(OC)c(OC)c3)n2C)n(CCC)c1=O | Ki [4]: 1.1 µM
22 | > 10 | > 10 |  | CCCn1c(=O)c2c(nc(/C(C)=C/c3ccccc3)n2C)n(CCC)c1=O | 
23 | > 100 | > 10 |  | CCCn1c(=O)c2nc(/C(C)=C/c3ccccc3)[nH]c2n(CCC)c1=O | 
24 | 0.82 | 2.2 | 0.37 | CCCn1c(=O)[nH]c(=O)c2[nH]c(/C=C/c3cc(OC)c(OC)c(OC)c3)nc21 | 
25 | 1.7 |  |  | CCCn1c(=O)c2nc(/C=C/c3ccc(OC)c(OC)c3)[nH]c2n(CCC)c1=O | 
26 | 3.5 | 1.8 | 1.9 | CCCn1c(=O)c2c(nc(C/C=C/c3ccccc3)n2C)n(CCC)c1=O | 
27 | 0.72 | 0.015 | 48 | CCCn1c(=O)c2c(nc(/C=C/c3ccccc3)n2C)n(CCC)c1=O | Ki [4]: 0.22 µM
28 | 1.4 | 0.093 | 15 | CCCCn1c(=O)c2nc(/C=C/c3cc(OC)c(OC)c(OC)c3)[nH]c2n(CCCC)c1=O | 
29 |  |  | 5.4 | CCCn1c(=O)c2nc(-c3ccc(S(=O)(=O)N(C)CCN(C)C)cc3)[nH]c2n(CCC)c1=O | 
30 | > 100 | 0.11 |  | CCCn1c(=O)c2nc(/C=C/c3ccc(OC)cc3)[nH]c2n(CCC)c1=O | 
